Results: patent US20240269139A1, “COMPOUNDS FOR TARGETED PROTEIN DEGRADATION OF KINASES” (DANA-FARBER CANCER INSTITUTE, INC., priority 2020, published 2024)
Where two headings read alike, the source gives them in different places.

Legend:
Type in all cases: cell-based
[1] = biological target: T1, protein kinases (human kinome) (Homo sapiens, UniProt O14965)
T1 sequence (O14965 1-403): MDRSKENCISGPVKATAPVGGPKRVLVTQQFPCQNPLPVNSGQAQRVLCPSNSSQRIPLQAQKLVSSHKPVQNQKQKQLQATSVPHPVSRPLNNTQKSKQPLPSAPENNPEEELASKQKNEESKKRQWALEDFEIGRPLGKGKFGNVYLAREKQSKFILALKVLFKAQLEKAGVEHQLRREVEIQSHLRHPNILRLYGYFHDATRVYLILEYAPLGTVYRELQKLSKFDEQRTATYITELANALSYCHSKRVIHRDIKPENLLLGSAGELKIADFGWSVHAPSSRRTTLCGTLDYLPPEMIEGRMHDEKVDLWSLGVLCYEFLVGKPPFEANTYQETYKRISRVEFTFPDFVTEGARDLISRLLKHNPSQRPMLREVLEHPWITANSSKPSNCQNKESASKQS

[2] = biological target: protein kinases (human kinome) (Homo sapiens, UniProt Q00534); conditions: for logFC CDK6: CDK6 (Q00534), direction down; for logFC of CDK6 (Q00534): down
[3] = biological target: protein kinases (human kinome) (Homo sapiens, UniProt P50613); conditions: for logFC: CDK7 (P50613) protein abundance, degrader vs DMSO, down; for logFC CDK7: CDK7 P50613, experiment wp104
[4] = biological target: protein kinases (human kinome) (Homo sapiens, UniProt P06493); conditions: CDK1 P06493
[5] = biological target: protein kinases (human kinome) (Homo sapiens, UniProt Q00535); conditions: for logFC of CDK5: Accession Q00535; for logFC CDK5 (Q00535): direction of change down
[6] = biological target: protein kinases (human kinome) (Homo sapiens, UniProt P24941)
[7] = biological target: protein kinases (human kinome) (Homo sapiens, UniProt Q00537); conditions: for logFC of CDK17: Accession Q00537; for logFC CDK17 (Q00537): direction of change down
[8] = test system: protein kinases (human kinome); conditions: for logFC MAPK8 (P45983-4): direction down; for logFC MAPK8: MAPK8 P45983-4
[9] = biological target: protein kinases (human kinome) (Homo sapiens, UniProt P11802)
[10] = biological target: protein kinases (human kinome) (Homo sapiens, UniProt P45984); conditions: MAPK9 P45984-1, experiment wp104
[11] = biological target: protein kinases (human kinome) (Homo sapiens, UniProt P53779); conditions: for logFC MAPK10 (P53779): direction of change down; for logFC: MAPK10 (P53779), experiment wp104
[12] = biological target: protein kinases (human kinome) (Homo sapiens, UniProt P49759)
[13] = biological target: protein kinases (human kinome) (Homo sapiens, UniProt O60307); conditions: experiment wp081
[14] = biological target: protein kinases (human kinome) (Homo sapiens, UniProt Q16539)
[15] = biological target: protein kinases (human kinome) (Homo sapiens, UniProt P53667); conditions: LIMK1 (P53667-1), experiment wp081

Chain of protein kinases (human kinome) (Homo sapiens, UniProt P50613) (P50613 whole entry): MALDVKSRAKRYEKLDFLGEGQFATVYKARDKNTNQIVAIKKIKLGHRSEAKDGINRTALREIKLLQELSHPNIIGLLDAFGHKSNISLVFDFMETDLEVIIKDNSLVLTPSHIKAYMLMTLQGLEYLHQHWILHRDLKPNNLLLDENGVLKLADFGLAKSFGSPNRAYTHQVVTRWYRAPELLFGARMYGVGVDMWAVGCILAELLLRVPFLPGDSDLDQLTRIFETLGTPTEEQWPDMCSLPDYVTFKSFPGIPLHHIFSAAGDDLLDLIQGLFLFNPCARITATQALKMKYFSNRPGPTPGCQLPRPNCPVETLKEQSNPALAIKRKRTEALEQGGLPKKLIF
Chain of protein kinases (human kinome) (Homo sapiens, UniProt P45984) (P45984 whole entry): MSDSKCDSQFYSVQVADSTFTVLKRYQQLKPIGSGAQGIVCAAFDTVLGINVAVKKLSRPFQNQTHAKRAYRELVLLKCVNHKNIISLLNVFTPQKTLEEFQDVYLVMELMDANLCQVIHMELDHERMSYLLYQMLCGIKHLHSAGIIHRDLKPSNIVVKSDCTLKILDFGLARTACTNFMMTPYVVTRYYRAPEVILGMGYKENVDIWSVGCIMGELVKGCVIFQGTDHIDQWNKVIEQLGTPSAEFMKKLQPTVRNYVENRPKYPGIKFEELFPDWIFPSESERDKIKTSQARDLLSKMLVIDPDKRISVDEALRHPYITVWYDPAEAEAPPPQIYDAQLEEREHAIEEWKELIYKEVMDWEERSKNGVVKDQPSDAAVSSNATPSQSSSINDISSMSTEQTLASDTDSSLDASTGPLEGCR
Chain of protein kinases (human kinome) (Homo sapiens, UniProt P11802) (P11802 whole entry): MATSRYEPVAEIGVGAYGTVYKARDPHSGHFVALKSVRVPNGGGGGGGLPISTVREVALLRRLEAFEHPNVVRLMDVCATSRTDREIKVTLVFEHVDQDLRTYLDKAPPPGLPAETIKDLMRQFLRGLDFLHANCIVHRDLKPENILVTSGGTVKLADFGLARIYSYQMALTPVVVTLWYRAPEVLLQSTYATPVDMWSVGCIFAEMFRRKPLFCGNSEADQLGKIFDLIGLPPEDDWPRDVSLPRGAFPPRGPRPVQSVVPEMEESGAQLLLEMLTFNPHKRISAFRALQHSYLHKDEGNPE
Chain of protein kinases (human kinome) (Homo sapiens, UniProt P53779) (P53779 whole entry): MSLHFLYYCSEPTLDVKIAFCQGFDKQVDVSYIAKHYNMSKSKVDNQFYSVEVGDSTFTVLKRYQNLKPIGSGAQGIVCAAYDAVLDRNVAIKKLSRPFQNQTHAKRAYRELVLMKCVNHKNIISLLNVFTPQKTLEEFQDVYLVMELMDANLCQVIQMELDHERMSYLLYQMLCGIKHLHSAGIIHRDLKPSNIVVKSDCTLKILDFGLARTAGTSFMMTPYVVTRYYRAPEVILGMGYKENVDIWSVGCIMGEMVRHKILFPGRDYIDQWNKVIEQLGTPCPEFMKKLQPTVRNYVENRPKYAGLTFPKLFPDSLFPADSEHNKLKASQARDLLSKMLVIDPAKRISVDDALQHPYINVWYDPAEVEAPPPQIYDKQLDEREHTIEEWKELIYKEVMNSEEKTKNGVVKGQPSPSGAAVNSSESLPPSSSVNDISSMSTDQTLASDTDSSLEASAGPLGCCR
Chain of protein kinases (human kinome) (Homo sapiens, UniProt Q00535) (Q00535 whole entry): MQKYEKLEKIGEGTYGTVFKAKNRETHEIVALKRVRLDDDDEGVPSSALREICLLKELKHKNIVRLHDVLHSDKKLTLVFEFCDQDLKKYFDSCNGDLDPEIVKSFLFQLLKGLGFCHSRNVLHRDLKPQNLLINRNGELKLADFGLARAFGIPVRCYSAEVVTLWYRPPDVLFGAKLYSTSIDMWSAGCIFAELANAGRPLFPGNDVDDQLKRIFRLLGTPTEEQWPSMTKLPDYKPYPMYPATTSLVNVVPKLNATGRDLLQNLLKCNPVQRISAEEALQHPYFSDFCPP
Chain of protein kinases (human kinome) (Homo sapiens, UniProt Q00534) (Q00534 whole entry): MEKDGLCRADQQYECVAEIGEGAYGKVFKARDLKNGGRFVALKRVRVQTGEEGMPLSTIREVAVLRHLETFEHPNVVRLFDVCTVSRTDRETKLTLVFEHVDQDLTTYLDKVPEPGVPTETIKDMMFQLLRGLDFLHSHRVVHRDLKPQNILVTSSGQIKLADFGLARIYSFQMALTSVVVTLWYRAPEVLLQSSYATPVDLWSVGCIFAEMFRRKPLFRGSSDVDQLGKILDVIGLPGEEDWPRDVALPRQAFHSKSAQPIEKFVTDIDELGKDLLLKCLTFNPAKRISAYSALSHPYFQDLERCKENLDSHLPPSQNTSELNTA
Chain of protein kinases (human kinome) (Homo sapiens, UniProt Q00537) (Q00537 whole entry): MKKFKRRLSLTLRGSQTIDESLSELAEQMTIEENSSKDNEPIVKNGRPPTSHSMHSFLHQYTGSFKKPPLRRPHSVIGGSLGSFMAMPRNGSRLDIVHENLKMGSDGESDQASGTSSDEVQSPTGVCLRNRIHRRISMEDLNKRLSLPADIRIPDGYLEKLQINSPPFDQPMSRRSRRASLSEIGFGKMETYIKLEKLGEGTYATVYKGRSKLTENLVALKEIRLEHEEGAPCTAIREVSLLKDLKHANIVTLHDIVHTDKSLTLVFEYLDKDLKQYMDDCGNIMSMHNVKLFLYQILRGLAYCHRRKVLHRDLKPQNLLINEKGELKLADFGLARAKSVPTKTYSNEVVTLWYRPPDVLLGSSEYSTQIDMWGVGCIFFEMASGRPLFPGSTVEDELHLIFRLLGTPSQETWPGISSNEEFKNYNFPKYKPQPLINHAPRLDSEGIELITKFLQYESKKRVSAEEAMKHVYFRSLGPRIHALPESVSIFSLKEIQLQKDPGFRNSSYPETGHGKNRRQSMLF
Chain of protein kinases (human kinome) (Homo sapiens, UniProt P06493) (P06493 whole entry): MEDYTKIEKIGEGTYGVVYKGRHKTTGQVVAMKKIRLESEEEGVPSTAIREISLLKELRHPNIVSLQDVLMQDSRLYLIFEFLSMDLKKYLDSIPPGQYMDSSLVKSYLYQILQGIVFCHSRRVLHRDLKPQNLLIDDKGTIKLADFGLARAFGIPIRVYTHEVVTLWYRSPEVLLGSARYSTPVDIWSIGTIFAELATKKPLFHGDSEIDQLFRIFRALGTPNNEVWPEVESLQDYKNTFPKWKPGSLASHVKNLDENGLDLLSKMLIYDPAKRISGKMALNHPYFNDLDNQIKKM
Chain of protein kinases (human kinome) (Homo sapiens, UniProt Q16539) (Q16539 whole entry): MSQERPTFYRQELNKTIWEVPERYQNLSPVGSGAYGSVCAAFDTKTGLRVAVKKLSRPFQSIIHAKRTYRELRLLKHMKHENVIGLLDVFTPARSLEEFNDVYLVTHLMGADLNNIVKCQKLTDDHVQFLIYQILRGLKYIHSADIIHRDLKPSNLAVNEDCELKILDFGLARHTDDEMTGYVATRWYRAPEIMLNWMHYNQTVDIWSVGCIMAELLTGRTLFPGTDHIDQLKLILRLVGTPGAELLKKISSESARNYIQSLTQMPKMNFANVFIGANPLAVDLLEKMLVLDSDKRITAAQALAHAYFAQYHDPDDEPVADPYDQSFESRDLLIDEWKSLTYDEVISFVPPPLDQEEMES
Chain of protein kinases (human kinome) (Homo sapiens, UniProt O60307) (O60307 whole entry): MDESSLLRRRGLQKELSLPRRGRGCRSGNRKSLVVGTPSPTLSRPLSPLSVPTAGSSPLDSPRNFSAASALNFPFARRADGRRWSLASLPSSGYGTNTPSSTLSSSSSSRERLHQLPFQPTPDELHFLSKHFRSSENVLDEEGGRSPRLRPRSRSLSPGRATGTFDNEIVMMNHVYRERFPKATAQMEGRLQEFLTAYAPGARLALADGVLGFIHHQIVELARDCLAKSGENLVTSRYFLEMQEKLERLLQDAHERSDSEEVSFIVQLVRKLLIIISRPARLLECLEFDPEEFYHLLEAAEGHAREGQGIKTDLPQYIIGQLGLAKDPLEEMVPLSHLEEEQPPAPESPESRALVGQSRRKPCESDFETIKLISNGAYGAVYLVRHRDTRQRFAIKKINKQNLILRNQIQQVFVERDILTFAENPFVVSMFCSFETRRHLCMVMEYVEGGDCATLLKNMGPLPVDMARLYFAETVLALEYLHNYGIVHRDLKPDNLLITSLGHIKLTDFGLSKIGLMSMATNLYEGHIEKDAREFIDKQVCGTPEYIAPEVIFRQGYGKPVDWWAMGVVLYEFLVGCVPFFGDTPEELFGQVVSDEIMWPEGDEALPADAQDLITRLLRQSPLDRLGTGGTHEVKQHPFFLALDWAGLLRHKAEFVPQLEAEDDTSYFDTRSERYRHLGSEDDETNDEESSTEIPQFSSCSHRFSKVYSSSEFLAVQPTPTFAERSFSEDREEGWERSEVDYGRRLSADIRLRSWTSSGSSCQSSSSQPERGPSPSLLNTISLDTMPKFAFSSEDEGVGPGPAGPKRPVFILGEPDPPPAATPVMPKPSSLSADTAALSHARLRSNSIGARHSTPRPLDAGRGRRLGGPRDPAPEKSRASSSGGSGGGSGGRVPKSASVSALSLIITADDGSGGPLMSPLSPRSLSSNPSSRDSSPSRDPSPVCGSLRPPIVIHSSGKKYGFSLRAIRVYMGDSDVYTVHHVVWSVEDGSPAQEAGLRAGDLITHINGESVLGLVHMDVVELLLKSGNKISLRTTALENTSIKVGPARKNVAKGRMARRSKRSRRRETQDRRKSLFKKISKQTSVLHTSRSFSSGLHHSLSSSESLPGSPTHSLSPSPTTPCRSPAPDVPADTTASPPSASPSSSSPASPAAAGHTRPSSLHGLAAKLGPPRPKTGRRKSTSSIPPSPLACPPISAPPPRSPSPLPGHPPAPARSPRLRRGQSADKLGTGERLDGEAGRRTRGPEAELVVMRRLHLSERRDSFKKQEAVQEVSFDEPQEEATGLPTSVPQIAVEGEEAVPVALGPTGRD

NC(=O)c1c(F)cccc1Nc1nc(NC2CCN(S(=O)(=O)CCNC(=O)CCCCCCCCOc3cccc4c3C(=O)N(C3CCC(=O)NC3=O)C4=O)CC2)ncc1Br (centres unmarked) [TMX.01.160.1]
logFC AURKA (O14965) ([1]; experiment wp104, _0.25): −1.326
logFC AURKA (O14965) ([1]; experiment wp104, _1): −1.466
logFC CDK6 ([2]; experiment wp104, _0.25): −0.866
logFC CDK6 ([2]; experiment wp104, _1): −0.8425
logFC of CDK6 (Q00534) ([2]; Experiment wp104, _0.25): −0.866
logFC of CDK6 (Q00534) ([2]; Experiment wp104, _1): −0.8425
logFC ([3]; experiment suffix _0.25): −0.4941
logFC ([3]; experiment suffix _1): −0.5204
logFC CDK7 ([3]; _0.25): −0.4941
logFC CDK7 ([3]; _1): −0.5204
logFC ([4]; experiment wp104, 0.25): −0.7936
logFC CDK1 ([4]; experiment wp104, 0.25): −0.7936
logFC ([4]; experiment wp104, 1): −0.9413
logFC CDK1 ([4]; experiment wp104, 1): −0.9413
logFC of CDK5 ([5]; experiment wp104, suffix _0.25): −1.866
logFC of CDK5 ([5]; experiment wp104, suffix _1): −1.827
logFC CDK5 (Q00535) ([5]; experiment wp104, _0.25): −1.866
logFC CDK5 (Q00535) ([5]; experiment wp104, _1): −1.827
logFC CDK2 (P24941-1) ([6]; experiment wp104, _0.25): −1.024
logFC CDK2 (P24941-1) ([6]; experiment wp104, _0.25, direction of change down): −1.024
logFC CDK2 (P24941-1) ([6]; experiment wp104, _1): −0.9457
logFC CDK2 (P24941-1) ([6]; experiment wp104, _1, direction of change down): −0.9457
logFC of CDK17 ([7]; experiment wp104, suffix _0.25): −0.7788
logFC of CDK17 ([7]; experiment wp104, suffix _1): −0.6817
logFC CDK17 (Q00537) ([7]; experiment wp104, _0.25): −0.7788
logFC CDK17 (Q00537) ([7]; experiment wp104, _1): −0.6817
logFC MAPK8 (P45983-4) ([8]; Experiment wp104, _0.25): −0.3338
logFC MAPK8 (P45983-4) ([8]; Experiment wp104, _1): −0.476
logFC MAPK8 ([8]; experiment wp104, _0.25): −0.3338
logFC MAPK8 ([8]; experiment wp104, _1): −0.476
logFC CDK16 (Q00536-2) ([8]; experiment wp104, 0.25): −0.8646
logFC CDK16 (Q00536-2) ([8]; experiment wp104, 1): −0.6009
logFC CDK16 (Q00536-2) ([8]; experiment wp104, suffix _0.25): −0.8646
logFC CDK16 (Q00536-2) ([8]; experiment wp104, suffix _1): −0.6009
logFC CDK4 (P11802) ([9]; experiment wp104, _0.25): −0.5542
logFC CDK4 (P11802) ([9]; experiment wp104, _1): −0.7676
logFC ([10]; _0.25): −1.635
logFC MAPK9 ([10]; _0.25): −1.635
logFC ([10]; _1): −1.496
logFC MAPK9 ([10]; _1): −1.496
logFC MAPK10 (P53779) ([11]; Experiment wp104_TMX.01.160.1_0.25): −0.5743
logFC MAPK10 (P53779) ([11]; Experiment wp104_TMX.01.160.1_1): −0.5743
logFC ([11]; suffix _0.25): −0.5743
logFC ([11]; suffix _1): −0.5743

Cc1ncsc1-c1ccc([C@H](C)NC(=O)[C@@H]2C[C@@H](O)CN2C(=O)[C@@H](NC(=O)CCOCCOCCOCCN2CCC(C(=O)Nc3ncc(SCc4ncc(C(C)(C)C)o4)s3)CC2)C(C)(C)C)cc1 [ZZ.01.31B]
logFC ([8]; CDK9 (P50750-2) protein abundance, degrader vs DMSO, down): −0.837
logFC CDK9 (P50750-2) ([8]; Experiment wp195): −0.837
logFC CLK1 ([12]; CLK1 P49759, experiment wp195): −0.3482
logFC of CLK1 (P49759) ([12]; Experiment wp195): −0.3482

CC(C)(C)c1cc(NC(=O)Nc2ccc(Oc3ccnc(C(=O)NCCOCCOCCNC(=O)CNc4cccc5c4C(=O)N(C4CCC(=O)NC4=O)C5=O)c3)cc2F)n(-c2ccc3ncccc3c2)n1 (centres unmarked) [TL13.178]
logFC MAST3 (O60307) ([13]; direction of change down): −0.4852
logFC MAST3 ([13]; protein MAST3 (O60307), down): −0.4852
logFC ([14]; MAPK14 (Q16539) protein abundance, degrader vs DMSO, down): −0.5659
logFC MAPK14 ([14]; MAPK14, accession Q16539, experiment wp081, direction of change down): −0.5659
logFC MAP3K20 (Q9NYL2-2) ([8]; Experiment wp081): −1.407
logFC MAPK14 ([8]; MAPK14, accession Q16539-2, experiment wp081, direction of change down): −0.3343
logFC MAPK14 ([8]; MAPK14 Q16539-2, experiment wp081): −0.3343
logFC MAP3K20 (Q9NYL2-2) ([8]; experiment wp081): −1.407
logFC CDK4 (P11802) ([9]; experiment wp081): −0.5762
logFC LIMK1 ([15]; direction down): −0.3359
logFC LIMK1 ([15]; down): −0.3359
